Consider 5 compounds from patent US10471149B2 (Insmed Incorporated, priority 2012, dated 2019).

The AUC is the area under the concentration-time curve, a measure of exposure. By Vd is commonly meant the apparent volume that relates the amount in the body to the concentration in plasma or blood.

For data set [1] the following is noted: cited from earlier work.
Data set [2] can be described thus: Chemical stability of vancomycin in aqueous solution (CDP-I formation by HPLC): effect of pH, organic bases, ethanol, ammonium ions. The following applies: 4° C. (FIG. 7); high concentration and low pH.
Experimental: Selected samples were also incubated at a lower concentration (20 mg/mL).
In buffered samples, an appropriate amount of buffer or amino acid additive was added. The pH values were chosen to cover the range between the lowest and highest acceptable values of pH, including pH 5.0 for lipid stability reasons and pH 6.5, above which degradation is expected to be impractically fast.
The concentration of 200 mg/mL was chosen to mimic what a high intra-liposomal might be but was no higher than this for practical handling purposes. All samples were liquid solutions upon preparation.
For comparison, lower concentration solutions (20 mg/mL) also were prepared by diluting 200 mg/mL samples 10-fold in water. Samples were incubated at 4° C. (in refrigerator) and at ambient temperature (about 23° C., which is referred herein to as “room temperature” or “RT”).
The conditions of data set [3]: animal models of meningitis caused by pneumococci; cited from earlier work.

Like-named read-outs stand apart in the source and are kept apart here.

As to `CCCCCCCCCCNCCN[C@@]1(C)C[C@H](O[C@H]2[C@H](Oc3c4cc5cc3Oc3ccc(cc3Cl)[C@@H](O)[C@@H](NC(=O)[C@@H](CC(C)C)NC)C(=O)N[C@@H](CC(N)=O)C(=O)N[C@H]5C(=O)N[C@H]3C(=O)N[C@H](C(=O)N[C@H](C(=O)O)c5cc(O)c(CNCP(=O)(O)O)c(O)c5-c5cc3ccc5O)[C@H](O)c3ccc(c(Cl)c3)O4)O[C@H](CO)[C@@H](O)[C@@H]2O)O[C@@H](C)[C@H]1O` [Telavancin], in data set [1], the AUC was 600 µg·h/mL, the Protein binding is listed as 90-93% and the Terminal half-life is on record as 7 h.
Regarding `CN[C@H](CC(C)C)C(=O)N[C@H]1C(=O)N[C@@H](CC(N)=O)C(=O)N[C@H]2C(=O)N[C@H]3C(=O)N[C@H](C(=O)N[C@H](C(=O)O)c4cc(O)cc(O)c4-c4cc3ccc4O)[C@H](O)c3ccc(c(Cl)c3)Oc3cc2cc(c3O[C@@H]2O[C@H](CO)[C@@H](O)[C@H](O)[C@H]2O[C@H]2C[C@](C)(N)[C@H](O)[C@H](C)O2)Oc2ccc(cc2Cl)[C@H]1O` [Vancomycin], in data set [1], the AUC is 260 µg·h/mL, the Protein binding is on record as 10-55%, the Terminal half-life is 4 to 8 h and the distribution volume (Vd) was 0.3 L/kg. Further, the degradation rate result in data set [2] is on record as “about 0.1 % per week”.
As for `CN[C@H]1C(=O)N[C@@H]2Cc3ccc(cc3)Oc3cc4cc(c3O[C@@H]3O[C@H](C(=O)O)[C@@H](O)[C@H](O)[C@H]3NC(=O)CCCCCCCCC(C)C)Oc3ccc(cc3Cl)[C@@H](O)[C@@H]3NC(=O)[C@H](NC(=O)[C@@H]4NC(=O)[C@@H](NC2=O)c2cc(cc(O)c2Cl)Oc2cc1ccc2O)c1ccc(O)c(c1)-c1c(O[C@H]2O[C@H](CO)[C@@H](O)[C@H](O)[C@@H]2O)cc(O)cc1[C@@H](C(=O)NCCCN(C)C)NC3=O` [Dalbavanc in, Dalbavancin], in data set [1] (in vivo), the AUC is 27103 µg·h/mL, the Protein binding is given as 98% and the Vd is reported as 0.11 L/kg.
With `CN[C@H](CC(C)C)C(=O)N[C@H]1C(=O)N[C@@H](CC(N)=O)C(=O)N[C@H]2C(=O)N[C@H]3C(=O)N[C@H](C(=O)N[C@H](C(=O)O)c4cc(O)cc(O)c4-c4cc3ccc4O)[C@H](O[C@H]3C[C@](C)(N)[C@@H](O)[C@H](C)O3)c3ccc(c(Cl)c3)Oc3cc2cc(c3O[C@@H]2O[C@H](CO)[C@@H](O)[C@H](O)[C@H]2O[C@H]2C[C@](C)(NCc3ccc(-c4ccc(Cl)cc4)cc3)[C@@H](O)[C@H](C)O2)Oc2ccc(cc2Cl)[C@H]1O` [Oritavancin], in data set [1], the AUC was 152 µg·h/mL, the Protein binding is on record as 90% and the Terminal half-life is on record as 360 h. In addition, the “concentration in cerebrospinal fluid, % of the serum level” value in data set [3] is listed as 5%.
Consider Teicoplanin, for which, in data set [1], the AUC was 550 µg·h/mL, the Protein binding is 90%, the Terminal half-life was 83 to 168 h and the Vd is 0.9 to 1.6 L/kg.
